# Data from patent publication US10206862B2, “Supplement to support healthy hair, skin, and nails” (priority 2016, dated 2019).
# Columns and labels:
# [1] = tested on: Antioxidant Response Element (ARE); test: ARE reporter assay (ARE-32 luciferase reporter cell line); format: cell-based, rat; conditions: ARE32 (MCF7) luciferase reporter cells, 24 hours treatment; Nrf2 antioxidant response activation
# Procedure: ARE activation was quantitated using the ARE-32 reporter cell line available from CXR-Biosciences as described in the ARE Assay below. ARE32 is a stable MCF7 cell line containing pGL8x-ARE (8 copies of the rat GST ARE linked to the luciferase gene) and pCDNA3.1, which contains the neomycin selectable marker. Selection was performed in the presence of G418 and resistant clones were isolated. Clones were screened for induction of luciferase in response to tBHQ (tert-Butylhydroquinone). The ARE32 cells are maintained routinely in the DMEM (phenol red free) containing: 10% FBS, 50 units/ml penicillin & 50 μg/ml streptomycin, 0.8 mg/ml G418. […] Cells were frozen in medium that contains 90% FBS and 10% dimethyl sulfoxide (DMSO). In a 96 well-plate, seed 1×10^4 cells/well in 100 μl DMEM containing 50 units/ml penicillin, 50 μg/ml streptomycin, 0.8 mg/ml G418 and 10% FBS. Next, incubate the cells at 37° C. in a 5% CO2 incubator for 24 hrs, and then replace the medium with 100 μl fresh media. Treat with test compounds at 2 μl per well, positive control was 25 μM TBHQ. (10 mM tBHQ of stock solution freshly prepared in DMSO). Add 100 μl of media after treatment for a final assay volume of 200 μL. Incubate the cells at 37° C. in CO2 incubator for another 24 hours. […]
# keratinocytes = test: Reduction in ATP depletion after peroxide stress (CellTiter-Glo); format: cell-based; conditions: 1 hour treatment, net luminescence = treatment counts minus vehicle control counts
# Procedure: Hydrogen peroxide is a well-known ROS and is commonly used as a model to analyze the effects of various ROS. In this test, keratinocytes were cultured (passage <8) in T150 flasks using EpiLife® medium (Calcium Free and Phenol Red Free, supplemented with penicillin/streptomycin and keratinocytes growth supplement, Invitrogen™ cat# MEPICFPRF500). The keratinocytes were then plated in 24 well plates, 40,000 cells/well, 1 ml media. After 24 hours, the keratinocytes were treated with organic astaxanthin and astaxanthin in combination with Digestive Support Blend (see Example 1 above), Stress and Energy Support Blend (see Example 1 above), Reishi, or biotin for 1 hour. The keratinocytes were washed in PBS and ATP levels were measured using the CellTiter-Glo® Luminescent Cell Viability Assay (available from Promega, cat# G7571/2/3) per manufacturer's directions. Luminescence was measured on a SpectraMax® M3 (available from Molecular Devices, Sunnyvale, Calif., USA). Net luminescence (or net ATP) is calculated by subtracting the luminescence counts from the vehicle control from the luminescence counts from the treatment groups.
# [2] = tested on: PGE2 release from UVB stressed keratinocytes; test: PGE2 assay in UVB stressed keratinocytes; format: cell-based; conditions: telomerized human keratinocytes, UVB 15 mJ/cm^2, 24 hours treatment; PGE2 (pg/mL) normalized to ATP; FIG. 3
# Procedure: Telomerized human keratinocytes are propgated in EpiLife® Media in CO2-incubator at 37° C. in T150 flasks (available from Corning®, Corning, N.Y., USA). […] The plates were incubated another 2 days until cell confluency reaches >80%. At this point, the cells were irradiated with a Bio-Sun™ UV with UVB light for a dose of 15 mJ/cm^2. The media was then switched with fresh medium prepared with the treatments. The cells were then incubated for 24 hours before harvest. At harvest, the media supernatant was collected and transferred to a deep well plate and frozen in −80° C. for later determination of PGE2 levels. PGE2 levels were measured from the media supernatants using the PGE2 Assay kit (available from Cisbio™, Bedford, Mass.) per manufacturer's directions. PGE2 levels here were normalized to the ATP measurements such that the final PGE2 values were recorded as PGE2 (pg/mL)/ATP level treatment compared to control. Typically, each data point is the average of 4 replicates.
Structure (SMILES),ARE - Fold Over Control [1],Net ATP (keratinocytes),PGE2 release from keratinocytes [2]
O=C(O)CCCC[C@@H]1SC[C@@H]2NC(=O)N[C@@H]21 [Biotin],1.71 Fold Over Control,947,reduce PGE2
"CC1=C(/C=C/C(C)=C/C=C/C(C)=C/C=C/C=C(C)/C=C/C=C(C)/C=C/C2=C(C)C(=O)[C@@H](O)CC2(C)C)C(C)(C)C[C@H](O)C1=O [Organic Astaxanthin, Astaxanthin]",2.65 Fold Over Control,1096,reduce PGE2
